Where two headings read alike, the source gives them in different places. *1 amine or outer side, *2 acyl side, *3 side chain or, on linkers, in order; H or OH if unused. Where a SMILES comes first, the peptide text is derived from it. Side-chain parts run from the residue outwards. [ ]: non-standard residue; d: D form. The star is where a group is joined. Decanoyl(10-(4-HOOC-PhO)) = O=C(O)c1ccc(OCCCCCCCCCC(=O)*)cc1; αMePhe(2-F) = C[C@](N)(Cc1ccccc1F)C(=O)O; γGlu = O=C(O)[C@H](CCC(=O)[*:2])N[*:1]; C14 diacid = O=C(O)CCCCCCCCCCCCC(=O)*; αMeY = C[C@](N)(Cc1ccc(O)cc1)C(=O)O; αMeL = CC(C)C[C@](C)(N)C(=O)O; Orn = NCCC[C@H](N)C(=O)O; AEEA = NCCOCCOCC(=O)O; Aib = CC(C)(N)C(=O)O
Key:
Assay type in all cases: cell-based
[1] = target: T1, hGCGR (Homo sapiens, UniProt P47871); assay: Functional cAMP formation (HTRF) in HEK-293 clonal cells expressing hGCGR, 0.1% bovine casein, without or with 1.0% human serum albumin; conditions: cAMP, 37° C.
T1 construct: expressed in transfected cells
Outline: (§1)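 Cells were stimulated with peptide for 30 min at 37° C, then intracellular cAMP was measured by competitive HTRF (665/620 nm ratio) and converted to nM using a cAMP standard curve. Relative EC50 and Emax came from four-parameter logistic fits of percent maximal response against peptide concentration.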

[2] = target: T2, hGIPR (Homo sapiens, UniProt P48546); assay: Functional cAMP formation (HTRF) in HEK-293 clonal cells expressing hGIPR, 0.1% bovine casein, without or with 1.0% human serum albumin; conditions: for Emax: percent of maximal response to GIP(1-42)NH2; for EC50: cAMP
T2 construct: expressed in transfected cells
T2 sequence (P48546 22-466): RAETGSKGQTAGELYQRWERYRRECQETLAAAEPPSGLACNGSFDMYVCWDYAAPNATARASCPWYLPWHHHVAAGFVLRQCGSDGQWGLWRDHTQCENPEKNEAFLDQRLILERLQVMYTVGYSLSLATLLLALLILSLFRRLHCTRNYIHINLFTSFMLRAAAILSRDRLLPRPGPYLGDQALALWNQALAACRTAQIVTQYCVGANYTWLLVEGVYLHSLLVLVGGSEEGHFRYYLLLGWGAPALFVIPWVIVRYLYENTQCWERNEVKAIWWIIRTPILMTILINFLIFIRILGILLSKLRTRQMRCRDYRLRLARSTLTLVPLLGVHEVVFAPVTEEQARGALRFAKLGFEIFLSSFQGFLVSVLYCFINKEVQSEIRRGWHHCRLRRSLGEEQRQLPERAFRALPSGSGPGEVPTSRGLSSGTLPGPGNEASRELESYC
Outline: as §1

[3] = target: hGLP-1R (Homo sapiens, UniProt P43220); assay: Functional cAMP formation (HTRF) in HEK-293 clonal cells expressing hGLP-1R, 0.1% bovine casein, without or with 1.0% human serum albumin; design: expressed in transfected cells; conditions: for Emax: percent of maximal response to GLP-1(7-36)NH2; for EC50: cAMP
Outline: as §1

[4] = hGCGR EC50, nM (SEM, n), 0.1% bovine casein (no human serum albumin), geometric mean
[5] = hGCGR EC50, nM (SEM, n), 0.1% bovine casein and 1.0% human serum albumin, geometric mean (SEM, n)
[6] = HEK293, read-out: hGIPR Emax, % ± SEM, cAMP, 37° C., 0.1% bovine casein and 1.0% human serum albumin
[7] = hGIPR EC50, nM (SEM, n), 37° C., 0.1% bovine casein (no human serum albumin), geometric mean
[8] = hGLP-1R EC50, nM (SEM, n), 37° C., 0.1% bovine casein (no human serum albumin), geometric mean
[9] = HEK293, read-out: hGLP-1R Emax, % ± SEM, cAMP, 37° C., 0.1% bovine casein and 1.0% human serum albumin

hGLP-1R, sequence (P43220 24-463): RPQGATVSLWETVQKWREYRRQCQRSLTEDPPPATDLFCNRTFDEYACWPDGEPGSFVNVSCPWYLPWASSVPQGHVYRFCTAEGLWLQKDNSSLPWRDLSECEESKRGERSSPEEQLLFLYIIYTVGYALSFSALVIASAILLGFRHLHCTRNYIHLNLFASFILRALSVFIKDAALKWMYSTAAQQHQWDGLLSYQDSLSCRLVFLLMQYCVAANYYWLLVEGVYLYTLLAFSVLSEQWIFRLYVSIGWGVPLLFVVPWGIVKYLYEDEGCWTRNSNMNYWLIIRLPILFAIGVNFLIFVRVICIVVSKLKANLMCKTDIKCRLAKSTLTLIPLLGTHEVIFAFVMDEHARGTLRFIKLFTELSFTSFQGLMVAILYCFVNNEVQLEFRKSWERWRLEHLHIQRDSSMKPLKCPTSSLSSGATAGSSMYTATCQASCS
T1 sequence (P47871 26-477): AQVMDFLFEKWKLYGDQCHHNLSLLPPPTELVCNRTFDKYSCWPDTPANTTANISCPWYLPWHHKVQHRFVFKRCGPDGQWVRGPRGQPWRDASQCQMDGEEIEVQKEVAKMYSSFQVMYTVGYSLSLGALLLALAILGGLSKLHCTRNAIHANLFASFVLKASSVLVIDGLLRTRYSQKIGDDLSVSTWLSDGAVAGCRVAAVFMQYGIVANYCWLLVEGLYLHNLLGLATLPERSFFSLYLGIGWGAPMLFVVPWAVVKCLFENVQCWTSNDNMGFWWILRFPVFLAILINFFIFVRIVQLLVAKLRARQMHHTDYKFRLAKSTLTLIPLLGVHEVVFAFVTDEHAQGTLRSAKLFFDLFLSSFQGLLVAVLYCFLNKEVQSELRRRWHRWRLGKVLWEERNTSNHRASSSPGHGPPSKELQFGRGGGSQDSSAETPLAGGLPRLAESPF

SMILES	EC50 ([1]; 0.1% bovine casein (no human serum albumin), geometric mean, read-out: hGCGR EC50, nM (SEM, n))	EC50 ([1]; 0.1% bovine casein and 1.0% human serum albumin, geometric mean (SEM, n), read-out: hGCGR EC50, nM (SEM, n))	Emax ([2]; HEK293, cAMP, 37° C., 0.1% bovine casein and 1.0% human serum albumin, read-out: hGIPR Emax, % ± SEM)	EC50 ([2]; 37° C., 0.1% bovine casein (no human serum albumin), geometric mean, read-out: hGIPR EC50, nM (SEM, n))	EC50 ([2]; 37° C., 0.1% bovine casein and 1.0% human serum albumin, geometric mean (SEM, n), read-out: hGIPR EC50, nM (SEM, n))	Emax ([3]; HEK293, cAMP, 37° C., 0.1% bovine casein and 1.0% human serum albumin, read-out: hGLP-1R Emax, % ± SEM)	Emax ([3]; HEK293, cAMP, 37° C., 0.1% bovine casein, arithmetic mean, read-out: hGLP-1R Emax, % ± SEM)	EC50 ([3]; 37° C., 0.1% bovine casein (no human serum albumin), geometric mean, read-out: hGLP-1R EC50, nM (SEM, n))	EC50 [1, 4]	EC50 [1, 5]	Emax [2, 6]	EC50 [2, 7]	EC50 [3, 8]	Emax [3, 9]	EC50 ([2]; hGIPR EC50, nM (SEM, n), 37° C., 0.1% bovine casein and 1.0% human serum albumin, geometric mean (SEM, n))	Emax ([3]; HEK293, read-out: hGLP-1R Emax, % ± SEM, cAMP, 37° C., 0.1% bovine casein, arithmetic mean)	EC50 ([3]; hGLP-1R EC50, nM (SEM, n), 37° C., 0.1% bovine casein and 1.0% human serum albumin, geometric mean (SEM, n))
CC[C@H](C)[C@H](NC(=O)[C@H](CC(C)C)NC(=O)[C@](C)(Cc1ccc(O)cc1)NC(=O)[C@@H](CCC(=O)O)NC(=O)[C@@H](NC(=O)[C@H](Cc1ccccc1)NC(=O)[C@H](CCCCNC(=O)COCCOCCNC(=O)COCCOCCNC(=O)CC[C@H](NC(=O)CCCCCCCCCCCCC(=O)O)C(=O)O)NC(=O)C(C)(C)NC(=O)[C@H](CCC(N)=O)NC(=O)[C@H](C)NC(=O)[C@H](CCCCNC(=O)COCCOCCNC(=O)COCCOCCNC(=O)CC[C@H](NC(=O)CCCCCCCCCCCCC(=O)O)C(=O)O)NC(=O)[C@H](CCCN)NC(=O)[C@H](CC(=O)O)NC(=O)[C@H](CC(C)C)NC(=O)[C@](C)(CC(C)C)NC(=O)[C@@H](NC(=O)C(C)(C)NC(=O)[C@@H](NC(=O)[C@H](CC(=O)O)NC(=O)[C@H](CO)NC(=O)[C@@H](NC(=O)[C@](C)(Cc1ccccc1F)NC(=O)[C@@H](NC(=O)CNC(=O)[C@H](CCC(=O)O)NC(=O)C(C)(C)NC(=O)[C@@H](N)Cc1ccc(O)cc1)[C@@H](C)O)[C@@H](C)O)C(C)C)[C@@H](C)CC)[C@@H](C)CC)C(=O)N[C@@H](CCCN)C(=O)NCC(=O)NCC(=O)N1CCC[C@H]1C(=O)N[C@@H](CO)C(=O)N[C@@H](CO)C(=O)NCC(=O)N[C@@H](C)C(=O)N1CCC[C@H]1C(=O)N1CCC[C@H]1C(=O)N1CCC[C@H]1C(=O)N[C@@H](CO)C(N)=O [Example 407] (H-Y[Aib]EGT[αMePhe(2-F)]TSDV[Aib]I[αMeL]LD[Orn]K([AEEA-AEEA-γGlu-C14 diacid])AQ[Aib]K([AEEA-AEEA-γGlu-C14 diacid])FI[dE][αMeY]LI[Orn]GGPSSGAPPPS-NH2)	> 9950 nM	> 9950 nM	95.4%	0.0114 nM	1.87 nM	97.2%	100%	0.156 nM	–	–	–	–	–	–	–	–	–
CC[C@H](C)[C@H](NC(=O)[C@H](CC(C)C)NC(=O)[C@](C)(Cc1ccc(O)cc1)NC(=O)[C@@H](CCC(=O)O)NC(=O)[C@@H](NC(=O)[C@H](Cc1ccccc1)NC(=O)[C@H](CCCCNC(=O)COCCOCCNC(=O)COCCOCCNC(=O)CC[C@H](NC(=O)CCCCCCCCCOc1ccc(C(=O)O)cc1)C(=O)O)NC(=O)C(C)(C)NC(=O)[C@H](CCC(N)=O)NC(=O)[C@H](C)NC(=O)[C@H](CCCCNC(=O)COCCOCCNC(=O)COCCOCCNC(=O)CC[C@H](NC(=O)CCCCCCCCCOc1ccc(C(=O)O)cc1)C(=O)O)NC(=O)[C@H](CCCN)NC(=O)[C@H](CC(=O)O)NC(=O)[C@H](CC(C)C)NC(=O)[C@](C)(CC(C)C)NC(=O)[C@@H](NC(=O)C(C)(C)NC(=O)[C@H](Cc1ccncc1)NC(=O)[C@H](CC(=O)O)NC(=O)[C@H](CO)NC(=O)[C@@H](NC(=O)[C@](C)(Cc1ccccc1F)NC(=O)[C@@H](NC(=O)CNC(=O)[C@H](CCC(=O)O)NC(=O)C(C)(C)NC(=O)[C@@H](N)Cc1ccc(O)cc1)[C@@H](C)O)[C@@H](C)O)[C@@H](C)CC)[C@@H](C)CC)C(=O)N[C@@H](CCCN)C(=O)NCC(=O)NCC(=O)N1CCC[C@H]1C(=O)N[C@@H](CO)C(=O)N[C@@H](CO)C(=O)NCC(=O)N[C@@H](C)C(=O)N1CCC[C@H]1C(=O)N1CCC[C@H]1C(=O)N1CCC[C@H]1C(=O)N[C@@H](CO)C(N)=O [Example 408]	–	–	–	–	–	–	–	–	> 9950 nM	> 9950 nM	84.4%	0.00888 nM	0.227 nM	–	–	–	–
CC[C@H](C)[C@H](NC(=O)[C@H](CC(C)C)NC(=O)[C@](C)(Cc1ccc(O)cc1)NC(=O)[C@@H](CCC(=O)O)NC(=O)[C@@H](NC(=O)[C@H](Cc1ccccc1)NC(=O)[C@H](CCCCNC(=O)COCCOCCNC(=O)COCCOCCNC(=O)CC[C@H](NC(=O)CCCCCCCCCOc1ccc(C(=O)O)cc1)C(=O)O)NC(=O)C(C)(C)NC(=O)[C@H](CCC(N)=O)NC(=O)[C@H](C)NC(=O)[C@H](CCCCNC(=O)COCCOCCNC(=O)COCCOCCNC(=O)CC[C@H](NC(=O)CCCCCCCCCOc1ccc(C(=O)O)cc1)C(=O)O)NC(=O)[C@H](CCCN)NC(=O)[C@H](CC(=O)O)NC(=O)[C@H](CC(C)C)NC(=O)[C@](C)(CC(C)C)NC(=O)[C@@H](NC(=O)C(C)(C)NC(=O)[C@H](Cc1ccc(O)cc1)NC(=O)[C@H](CC(=O)O)NC(=O)[C@H](CO)NC(=O)[C@@H](NC(=O)[C@](C)(Cc1ccccc1F)NC(=O)[C@@H](NC(=O)CNC(=O)[C@H](CCC(=O)O)NC(=O)C(C)(C)NC(=O)[C@@H](N)Cc1ccc(O)cc1)[C@@H](C)O)[C@@H](C)O)[C@@H](C)CC)[C@@H](C)CC)C(=O)N[C@@H](CCCN)C(=O)NCC(=O)NCC(=O)N1CCC[C@H]1C(=O)N[C@@H](CO)C(=O)N[C@@H](CO)C(=O)NCC(=O)N[C@@H](C)C(=O)N1CCC[C@H]1C(=O)N1CCC[C@H]1C(=O)N1CCC[C@H]1C(=O)N[C@@H](CO)C(N)=O [Example 409] (H-Y[Aib]EGT[αMePhe(2-F)]TSDY[Aib]I[αMeL]LD[Orn]K([AEEA-AEEA-γGlu-Decanoyl(10-(4-HOOC-PhO))])AQ[Aib]K([AEEA-AEEA-γGlu-Decanoyl(10-(4-HOOC-PhO))])FI[dE][αMeY]LI[Orn]GGPSSGAPPPS-NH2; N-terminus assumed)	–	–	–	–	–	–	–	–	> 9950 nM	> 9950 nM	84%	0.00928 nM	0.188 nM	97.7%	–	–	–
CC[C@H](C)[C@H](NC(=O)[C@H](CC(C)C)NC(=O)[C@](C)(Cc1ccc(O)cc1)NC(=O)[C@@H](CCC(=O)O)NC(=O)[C@@H](NC(=O)[C@H](Cc1ccccc1)NC(=O)[C@H](CCCCNC(=O)COCCOCCNC(=O)COCCOCCNC(=O)CC[C@H](NC(=O)CCCCCCCCCOc1ccc(C(=O)O)cc1)C(=O)O)NC(=O)C(C)(C)NC(=O)[C@H](CCC(N)=O)NC(=O)[C@H](C)NC(=O)[C@H](CCCCNC(=O)COCCOCCNC(=O)COCCOCCNC(=O)CC[C@H](NC(=O)CCCCCCCCCOc1ccc(C(=O)O)cc1)C(=O)O)NC(=O)[C@H](CCCN)NC(=O)[C@H](CC(=O)O)NC(=O)[C@H](CC(C)C)NC(=O)[C@](C)(CC(C)C)NC(=O)[C@@H](NC(=O)C(C)(C)NC(=O)[C@@H](NC(=O)[C@H](CC(=O)O)NC(=O)[C@H](CO)NC(=O)[C@@H](NC(=O)[C@](C)(Cc1ccccc1F)NC(=O)[C@@H](NC(=O)CNC(=O)[C@H](CCC(=O)O)NC(=O)C(C)(C)NC(=O)[C@@H](N)Cc1ccc(O)cc1)[C@@H](C)O)[C@@H](C)O)C(C)C)[C@@H](C)CC)[C@@H](C)CC)C(=O)N[C@@H](CCCN)C(=O)NCC(=O)NCC(=O)N1CCC[C@H]1C(=O)N[C@@H](CO)C(=O)N[C@@H](CO)C(=O)NCC(=O)N[C@@H](C)C(=O)N1CCC[C@H]1C(=O)N1CCC[C@H]1C(=O)N1CCC[C@H]1C(=O)N[C@@H](CO)C(N)=O [Example 410] (H-Y[Aib]EGT[αMePhe(2-F)]TSDV[Aib]I[αMeL]LD[Orn]K([AEEA-AEEA-γGlu-Decanoyl(10-(4-HOOC-PhO))])AQ[Aib]K([AEEA-AEEA-γGlu-Decanoyl(10-(4-HOOC-PhO))])FI[dE][αMeY]LI[Orn]GGPSSGAPPPS-NH2)	–	–	–	–	–	–	–	–	> 9950 nM	> 9950 nM	86.4%	0.0118 nM	0.251 nM	93.1%	1.28 nM	94%	11 nM

— patent US20230265151A1, “GIP/GLP1 CO-AGONIST COMPOUNDS” (priority 2020, published 2023)
